{
  "source": "paper PMC3544981",
  "about": "(Pharmacology, biochemistry, and behavior, 2012)",
  "key": {"α4β2*-nAChR": {"target": "α4β2*-nAChR (Mus musculus, UniProt O70174+Q9ERK7)", "sequence (O70174 31-629)": "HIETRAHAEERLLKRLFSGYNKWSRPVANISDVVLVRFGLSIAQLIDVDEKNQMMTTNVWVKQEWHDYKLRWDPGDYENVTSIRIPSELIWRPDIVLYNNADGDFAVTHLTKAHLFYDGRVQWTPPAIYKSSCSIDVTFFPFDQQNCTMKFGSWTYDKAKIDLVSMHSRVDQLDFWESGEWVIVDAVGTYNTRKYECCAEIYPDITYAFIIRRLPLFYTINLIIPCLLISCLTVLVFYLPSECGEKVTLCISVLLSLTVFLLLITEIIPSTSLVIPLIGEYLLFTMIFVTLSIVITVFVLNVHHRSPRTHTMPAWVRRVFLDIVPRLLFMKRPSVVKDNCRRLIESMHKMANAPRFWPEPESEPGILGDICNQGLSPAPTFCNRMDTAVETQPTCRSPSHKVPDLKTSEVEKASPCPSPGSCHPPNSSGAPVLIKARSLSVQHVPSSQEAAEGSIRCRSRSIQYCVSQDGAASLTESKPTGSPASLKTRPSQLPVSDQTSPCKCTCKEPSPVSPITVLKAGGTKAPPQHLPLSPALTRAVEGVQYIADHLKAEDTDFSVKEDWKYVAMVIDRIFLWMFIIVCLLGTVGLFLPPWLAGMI", "sequence (Q9ERK7 26-501)": "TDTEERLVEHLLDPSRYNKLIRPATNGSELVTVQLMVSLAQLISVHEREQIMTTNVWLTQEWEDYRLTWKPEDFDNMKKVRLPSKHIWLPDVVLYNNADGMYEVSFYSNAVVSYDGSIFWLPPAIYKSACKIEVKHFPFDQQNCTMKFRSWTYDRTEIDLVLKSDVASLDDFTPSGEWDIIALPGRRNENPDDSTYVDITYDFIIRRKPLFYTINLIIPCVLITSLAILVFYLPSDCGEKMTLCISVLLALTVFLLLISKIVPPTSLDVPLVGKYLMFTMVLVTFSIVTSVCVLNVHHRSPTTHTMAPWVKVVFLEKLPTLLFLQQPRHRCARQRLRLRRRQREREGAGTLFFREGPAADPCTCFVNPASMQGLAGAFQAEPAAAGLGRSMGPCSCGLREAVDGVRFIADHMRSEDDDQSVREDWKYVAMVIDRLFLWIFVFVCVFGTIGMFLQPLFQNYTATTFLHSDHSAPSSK", "format": "biochemical"}, "α4β2*-nAChRs [1]": {"target": "T1, α4β2*-nAChRs (Mus musculus, UniProt O70174+Q9ERK7)", "format": "biochemical"}, "α4β2*-nAChRs [2]": {"target": "T2, α4β2*-nAChRs (Mus musculus, UniProt O70174+Q9ERK7, V287L)", "T2 sequence (O70174 31-629)": "as the sequence (O70174 31-629) above", "T2 sequence (Q9ERK7 26-501 V287L)": "as the sequence (Q9ERK7 26-501) above, with V262L counted along it", "format": "biochemical"}, "α6β2*-nAChR [3]": {"target": "α6β2*-nAChR (Mus musculus, UniProt Q9ERK7+Q9R0W9)"}, "α6β2*-nAChR [4]": {"target": "α6β2*-nAChR (Mus musculus, UniProt Q9ERK7+Q9R0W9, V287L)", "sequence (Q9R0W9 31-494)": "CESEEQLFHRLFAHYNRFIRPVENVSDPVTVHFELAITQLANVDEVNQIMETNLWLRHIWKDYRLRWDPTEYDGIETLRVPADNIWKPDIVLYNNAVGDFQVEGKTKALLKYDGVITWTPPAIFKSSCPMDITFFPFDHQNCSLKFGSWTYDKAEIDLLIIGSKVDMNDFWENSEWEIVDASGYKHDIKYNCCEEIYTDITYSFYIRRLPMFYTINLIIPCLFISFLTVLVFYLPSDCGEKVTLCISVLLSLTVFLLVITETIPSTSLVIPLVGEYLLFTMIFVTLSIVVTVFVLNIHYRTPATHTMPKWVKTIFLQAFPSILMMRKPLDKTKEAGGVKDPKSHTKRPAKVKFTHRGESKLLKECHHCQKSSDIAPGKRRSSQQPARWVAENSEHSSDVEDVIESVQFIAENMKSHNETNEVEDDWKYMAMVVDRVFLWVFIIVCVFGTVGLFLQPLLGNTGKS", "sequence (Q9ERK7 26-501 V287L)": "as the sequence (Q9ERK7 26-501) above, with V262L counted along it", "details": "striatum, MT mice"}, "α4β2*-nAChRs [5]": {"target": "T1, α4β2*-nAChRs"}, "α4β2*-nAChRs [6]": {"target": "T2, α4β2*-nAChRs"}, "α4S248F mutation": {"test_system": "α4S248F mutation", "details": "2007, cited from earlier work"}, "[7]": {"target": "T3, α4β2*-nAChR binding sites (Mus musculus, UniProt O70174+Q9ERK7)", "T3 sequence (Q9ERK7 26-501)": "as the sequence (Q9ERK7 26-501) above", "T3 sequence (O70174 31-629)": "as the sequence (O70174 31-629) above", "test": "[125I]-Epibatidine binding to membrane fragments, cortex", "details": "read-out: Kd for [125I]-epibatidine, WT mice"}, "[8]": {"target": "T4, α4β2*-nAChR binding sites (Mus musculus, UniProt O70174+Q9ERK7, V287L)", "T4 sequence (O70174 31-629)": "as above", "T4 sequence (Q9ERK7 26-501 V287L)": "as the sequence (Q9ERK7 26-501) above, with V262L counted along it", "test": "[125I]-Epibatidine binding to membrane fragments, cortex", "details": "read-out: Kd for [125I]-epibatidine, MT mice"}, "[9]": {"target": "α4β2*-nAChR binding sites", "test": "[125I]-Epibatidine binding to membrane fragments, cortex", "parameters": "species or system mouse", "details": "read-out: Kd for [125I]-epibatidine, HT mice"}, "[10]": {"target": "T3, α4β2*-nAChR binding sites", "test": "[125I]-Epibatidine binding to membrane fragments, thalamus", "details": "read-out: Kd for [125I]-epibatidine, WT mice"}, "[11]": {"target": "T4, α4β2*-nAChR binding sites", "test": "[125I]-Epibatidine binding to membrane fragments, thalamus", "details": "read-out: Kd for [125I]-epibatidine, MT mice"}, "[12]": {"target": "α4β2*-nAChR binding sites", "test": "[125I]-Epibatidine binding to membrane fragments, thalamus", "parameters": "species or system mouse", "details": "read-out: Kd for [125I]-epibatidine, HT mice"}, "β2VL mice [13]": {"test_system": "β2VL mice", "details": "mouse, in vivo, ip, 5 mg/kg"}, "β2VL mice [14]": {"test_system": "β2VL mice", "details": "male, mouse, in vivo, ip, 2 mg/kg"}, "[15]": {"details": "β2VL knock-in, homozygous mutant (MT)"}},
  "note": "Several values for one entry are separate records, joined by “and”; a condition that tells them apart may be missing. Equal entries are not always repeated. Where two headings read alike, the source gives them in different places.",
  "data": [
    {"smiles": "CC(=O)OCC[N+](C)(C)C", "note": "[ACh, acetylcholine iodide]", "values": [
      {"measurement": "control ACh-stimulated 86Rb+ efflux", "setting": "α4β2*-nAChR", "value": "5.64±1.43 and 3.35±0.47"},
      {"measurement": "maximum ACh-stimulated [3H]-GABA release", "setting": "α4β2*-nAChRs [1]", "value": "3.31±0.24 and 3.69±0.19"},
      {"measurement": "reduction in maximal ACh-stimulated [3H]-GABA release", "setting": "α4β2*-nAChRs [1]", "value": 20, "unit": "%"},
      {"measurement": "maximum ACh-stimulated [3H]-GABA release", "setting": "α4β2*-nAChRs [2]", "value": "2.64±0.13"},
      {"measurement": "decrease in the α-CtxMII sensitive [3H]-dopamine release", "setting": "α6β2*-nAChR [3]", "value": 23, "unit": "%"},
      {"measurement": "α-CtxMII-sensitive maximal [3H]-dopamine release", "setting": "α6β2*-nAChR [3]", "value": "3.31±0.30"},
      {"measurement": "α-CtxMII-sensitive maximal [3H]-dopamine release", "setting": "α6β2*-nAChR [3]; striatum, WT mice", "value": "4.82±0.30"},
      {"measurement": "α-CtxMII-sensitive maximal [3H]-dopamine release", "setting": "α6β2*-nAChR [4]", "value": "3.73±0.29"},
      {"measurement": "decrease in EC50, ACh-stimulated [3H]-GABA release", "setting": "α4β2*-nAChRs [5]", "value": "approximately 10 fold"},
      {"measurement": "maximum ACh-stimulated [3H]-GABA release", "setting": "α4β2*-nAChRs [5]", "value": "1.96±0.17 and 2.25±0.16"},
      {"measurement": "reduction in maximal ACh-stimulated [3H]-GABA release", "setting": "α4β2*-nAChRs [5]", "value": 0, "unit": "%"},
      {"measurement": "maximum ACh-stimulated [3H]-GABA release", "setting": "α4β2*-nAChRs [6]", "value": "2.11±0.14"},
      {"measurement": "decrease in maximal ACh-stimulated [3H]-GABA release", "setting": "α4S248F mutation; α4S248F HT mice ref Teper et al.", "value": 60, "unit": "%"},
      {"measurement": "decrease in maximal ACh-stimulated [3H]-GABA release", "setting": "α4S248F mutation; α4S248F MT mice ref Teper et al.", "value": 80, "unit": "%"}
    ]},
    {"smiles": "Ic1ccc(C2CC3CCC2N3)cn1", "note": "(stereo not shown) [[^125I]-epibatidine]", "values": [
      {"measurement": "Kd", "setting": "[7]", "value": "0.15 ± 0.03", "unit": "nM"},
      {"measurement": "Kd", "setting": "[8]", "value": "0.13 ± 0.02", "unit": "nM"},
      {"measurement": "Kd", "setting": "[9]", "value": "0.12 ± 0.02", "unit": "nM"},
      {"measurement": "Kd", "setting": "[10]", "value": "0.15 ± 0.06", "unit": "nM"},
      {"measurement": "Kd", "setting": "[11]", "value": "0.11 ± 0.03", "unit": "nM"},
      {"measurement": "Kd", "setting": "[12]", "value": "0.08 ± 0.01", "unit": "nM"}
    ]},
    {"smiles": "CN1CCC[C@H]1c1cccnc1", "note": "[nicotine]", "values": [
      {"measurement": "interval from DAC to spike-wave seizure with tonic-clonic convulsions", "setting": "β2VL mice [13]", "value": "2 to 3", "unit": "min"},
      {"measurement": "time to tonic-clonic convulsion with EEG spike-wave discharges post-injection", "setting": "β2VL mice [13]", "value": "3~4 min"},
      {"measurement": "mice displaying diagonal retrograde tail", "setting": "β2VL mice [14]", "value": "2/19"},
      {"measurement": "mice displaying tonic forelimb digit splaying", "setting": "β2VL mice [14]", "value": "1/19"},
      {"measurement": "mice displaying tonic forelimb extension", "setting": "β2VL mice [14]", "value": "1/19"},
      {"measurement": "mice exhibiting forelimb clonus", "setting": "β2VL mice [14]", "value": "0/19"},
      {"measurement": "post-injection latency for onset of diagonal retrograde tail", "setting": "β2VL mice [14]", "value": "31 ± 8", "unit": "s"},
      {"measurement": "mice displaying diagonal retrograde tail", "setting": "β2VL mice [14]; [15]", "value": "19/19"},
      {"measurement": "mice displaying tonic forelimb digit splaying", "setting": "β2VL mice [14]; [15]", "value": "16/19"},
      {"measurement": "mice displaying tonic forelimb extension", "setting": "β2VL mice [14]; [15]", "value": "18/19"},
      {"measurement": "mice exhibiting forelimb clonus", "setting": "β2VL mice [14]; [15]", "value": "12/19"},
      {"measurement": "post-injection latency for onset of forelimb clonus", "setting": "β2VL mice [14]; [15]", "value": "59 ± 7", "unit": "s"},
      {"measurement": "post-injection latency for onset of tonic digit splaying", "setting": "β2VL mice [14]; [15]", "value": "59 ± 6", "unit": "s"},
      {"measurement": "post-injection latency for onset of tonic forelimb extension", "setting": "β2VL mice [14]; [15]", "value": "57 ± 5", "unit": "s"}
    ]}
  ]
}
